Results as given in patent US20240277742A1, “TRANSLATION INHIBITOR WITHOUT OCCUPYING RIBOSOME RESOURCES AS ANTI-TUMOR DRUG” (CHI BIOTECH CO., LTD., priority 2022, published 2024).

Assays:
ribosomes = experiment: Sucrose density ultracentrifugation (polysome profiling) of drug-treated cell lysates; format: cell-based; details: methyl aurintricarboxylate 50 μg/mL; Harringtonin 10 μg/mL; Kasugamycin 10 μg/mL; Pateamine A 2 μM; Hippuristanol 1 μM
Experimental: Example 2 Proof that methyl aurintricarboxylate, Kasugamycin and Hippuristanol are all translation inhibitors without occupying ribosome resources Using methods well known to those skilled in the art, sucrose density ultracentrifugation (polysome profiling) was carried out to measure polysomes. Ultracentrifugation was performed on normal cell lysates and drug-treated cell lysates at 15-50% sucrose density gradient, the solution was pumped out slowly, and OD260 nm (260 nm Optical Density) was measured. In FIG. 2A, the black line, gray solid line and gray dashed line are the experimental curves of normal cells, cells treated with methyl aurintricarboxylate (concentration 50 μg/mL) and cells treated with Harringtonin (concentration 10 μg/mL) respectively. In FIG. 2B, the gray solid line, gray dashed line, and black dotted line are the experimental curves of cells treated with Kasugamycin (concentration 10 μg/mL), Pateamine A (concentration 2 μM), and Hippuristanol (concentration 1 μM), respectively. The peak heights of the curves are related to concentration.

[1] = tested on: human breast cancer cell line MDA-MB-468; experiment: Transwell migration assay; format: cell-based; details: MDA-MB-468, 50 nM, 24 h
Experimental: (§1) The human breast cancer cell line MDA-MB-468 was incubated and 50 nM Hippuristanol was then added. The well-known Transwell migration and invasion assays were carried out. 100,000 cells were added to the Transwell chamber, migration/invasion was carried out for 24 h, and crystal violet staining was performed.

[2] = tested on: human breast cancer cell line MDA-MB-468; experiment: Transwell invasion assay; format: cell-based; details: MDA-MB-468, 50 nM, 24 h
Experimental: as §1

A549 lung cancer cells = experiment: Nude-mouse lung cancer xenograft model, tumor diameter; format: in vivo, nude mice; details: gavage, daily dose 10 mg/kg, days 1, 3, 5
Experimental: Using techniques well known in the art, the tumor inhibition assay of Hippuristanol was carried out on a nude-mouse xenograft model. Nude mice were subcutaneously injected with A549 lung cancer cells. After the tumors formed, Hippuristanol was administered by gavage once at a daily dose of 10 mg/kg. On days 1, 3, and 5, the tumor diameters of the nude mice were measured in vivo.

H1299 lung cancer cells = experiment: as above; format: in vivo, nude mice; details: gavage once, 10 μg/kg, days 1, 3, 5
Experimental: Using techniques well known in the art, the tumor inhibition assay of Kasugamycin was carried out on a nude-mouse xenograft model. Nude mice were subcutaneously injected with H1299 lung cancer cells. After the tumors formed, kasugamycin was administered (by gavage) once at a dose of 10 μg/kg. On days 1, 3, and 5, the tumor diameters of the nude mice were measured in vivo.

[3] = tested on: human breast cancer cell line MDA-MB-468; experiment: Cell proliferation by sulforhodamine B assay; format: cell-based; details: MDA-MB-468, 1 mg/L
Experimental: The human breast cancer cell line MDA-MB-468 was cultured, 1 mg/L Kasugamycin was then added, and cell proliferation was measured by the sulforhodamine B assay well known in the art (see Qin et al., BAPI promotes breast cancer cell proliferation and metastasis by deubiquitinating KLF5, Nature Communications 6:8471).

[4] = tested on: cancer cells (A549 and H1299); experiment: Cell apoptosis, onset concentration comparison under the same conditions; format: cell-based; details: same experimental conditions as methyl aurintricarboxylate
Experimental: (§2) Cell migration, cell invasion, cell apoptosis, cell colony formation and cytotoxicity experiments were carried out using methods well known to those skilled in the art. […] (3) Cell apoptosis: Cells were fluorescently labeled using Annexin V, and the occurrence of cell apoptosis was tested under a fluorescence microscopy or on a flow cytometer. […] As the concentration of methyl aurintricarboxylate increases (final concentration: 10 μg/mL, 20 μg/mL, 40 μg/mL), the percentage of apoptosis of cancer cells increases. The percentage of apoptosis of cancer cells is positively correlated with the concentration of methyl aurintricarboxylate. Under the same experimental conditions, the onset concentration of aurintricarboxylic acid (0.25-0.5 mg/mL) is 12.5 to 25 times that of methyl aurintricarboxylate.

lung cancer A549 cells = details: cisplatin concentration adopted (50 μM), from reported procedure; cited from earlier work
HBE cells [5] = experiment: Transwell migration assay; format: cell-based, human; details: 20 μg/mL, vs blank control
Experimental: (§3) Cell migration, cell invasion, cell apoptosis, cell colony formation and cytotoxicity experiments were carried out using methods well known to those skilled in the art. […] (1) Cell migration: The Transwell migration assay was carried out to test the migration ability of HBE, A549 and H1299 cells passing pores before and after treatment. The final concentration of methyl aurintricarboxylate was 20 μg/mL.

HBE cells [6] = experiment: Cell apoptosis, Annexin V labelling; format: cell-based, human; details: HBE, 10, 20, 40 μg/mL
Experimental: as §2

A549 cells [7] = experiment: Transwell invasion assay; format: cell-based; details: A549, 20 μg/mL, vs blank control
Experimental: (§4) Cell migration, cell invasion, cell apoptosis, cell colony formation and cytotoxicity experiments were carried out using methods well known to those skilled in the art. […] (2) Cell invasion: Transwell invasion assay was carried out on HBE, A549 and H1299 cells treated with or without methyl aurintricarboxylate (final concentration 20 μg/mL).

H1299 cells [8] = experiment: Transwell invasion assay; format: cell-based; details: H1299, 20 μg/mL, vs blank control
Experimental: as §4

A549 cells [9] = experiment: Cell apoptosis, Annexin V labelling; format: cell-based; details: A549, 10, 20, 40 μg/mL, increases with concentration
Experimental: as §2

H1299 cells [10] = experiment: Cell apoptosis, Annexin V labelling; format: cell-based; details: H1299, 10, 20, 40 μg/mL, increases with concentration
Experimental: as §2

A549 cells [11] = experiment: Agar colony formation assay; format: cell-based; details: A549, 20 μg/mL
Experimental: (§5) Cell migration, cell invasion, cell apoptosis, cell colony formation and cytotoxicity experiments were carried out using methods well known to those skilled in the art. […] (4) Cell colony formation: Agar colony formation assay was carried out on A549 and H1299 cells that were untreated and treated with methyl aurintricarboxylate (final concentration 20 μg/mL).

H1299 cells [12] = experiment: Agar colony formation assay; format: cell-based; details: H1299, 20 μg/mL
Experimental: as §5

[13] = tested on: human normal fibroblasts (primary culture); experiment: Apoptosis by Annexin V flow cytometry assay; format: cell-based; details: 20 μg/mL to 50 μg/mL, 48 h
Experimental: (§6) Apoptosis assay was carried out using human normal fibroblasts (primary culture) as normal controls and ES-2 human ovarian cancer cell line as cancer cells. […] (c) Apoptosis was tested by Annexin V flow cytometry assay. In the figure, cells in the area Q1 are non-apoptotic cells, cells in the area Q3 are early apoptotic (the key area for observing apoptosis), and cells in the area Q2 are late apoptotic, including some necrotic cells.

[14] = tested on: ES-2 human ovarian cancer cell line; experiment: Apoptosis by Annexin V flow cytometry assay; format: cell-based
Experimental: as §6

[15] = tested on: HCCLM3 liver cancer cells; experiment: Cell proliferation by CCK-8; format: cell-based; details: HCCLM3, 50 μg/mL or above, dose-effect relationship
Experimental: (§7) The Chinese liver cancer cell lines HCCLM3 and MHCC97H were taken, and cell proliferation was tested with the addition of methyl aurintricarboxylate. […] (b) A methyl aurintricarboxylate solution was added to the culture medium and the final concentrations of methyl aurintricarboxylate reached 10 μg/mL, 20 μg/mL, 50 μg/mL, 80 μg/mL and 120 μg/mL, respectively. The cells were further incubated for […] before sampling. (c) Cell proliferation was tested by CCK-8 (Cell Counting Kit-8).

[16] = tested on: MHCC97H liver cancer cells; experiment: Cell proliferation by CCK-8; format: cell-based; details: 50 μg/mL or above, dose-effect relationship
Experimental: as §7

A549 cells [17] = experiment: Transwell migration assay; format: cell-based; details: A549, 20 μg/mL, vs blank control
Experimental: as §3

H1299 cells [18] = experiment: Transwell migration assay; format: cell-based; details: H1299, 20 μg/mL, vs blank control
Experimental: as §3

For `COC(=O)C[C@](O)(CCC(C)(C)O)C(=O)O[C@@H]1C(OC)=C[C@]23CCCN2CCc2cc4c(cc2[C@H]13)OCO4` [Harringtonin], the “polysome profile (OD260 nm peaks of 40S, 60S, 1× and polysomes)” value (from here on “polysome profile”) (ribosomes) was “peak of 1× ribosomes is very high”.

For `C[C@H]1C[C@@]2(O[C@H]3C[C@H]4[C@@H]5CC[C@H]6C[C@H](O)CC[C@]6(C)[C@H]5[C@@H](O)C[C@]4(C)[C@H]3[C@@]2(C)O)OC1(C)C` [Hippuristanol], the cell migration [1] was “effectively reduce”, the “polysome profile” value (ribosomes) was “peaks of 40S and 60S dominate” and the cell invasion [2] was “effectively reduce”. For the same molecule, the “change in tumor diameter” value (A549 lung cancer cells) was “tumor shrink significantly”.

With `C[C@H]1O[C@H](O[C@H]2[C@H](O)[C@@H](O)[C@@H](O)[C@H](O)[C@@H]2O)[C@@H](N)C[C@@H]1NC(=N)C(=O)O` [Kasugamycin] the “polysome profile” value (ribosomes) was “peaks of 40S and 60S dominate”, the “change in tumor diameter” value (H1299 lung cancer cells) was “tumor shrink significantly” and the cell proliferation [3] was “slows down significantly from day 4”.

For `CC(/C=C/C(C)=C/[C@@H]1Cc2nc(cs2)[C@@H](C)C[C@@H](N)CC(=O)O[C@@H](C)C/C(C)=C/C=C\C(=O)O1)=C\CN(C)C` [Pateamine A], the “polysome profile” value (ribosomes) was “peaks of 40S and 60S dominate”.

With `O=C(O)C1=CC(=C(c2ccc(O)c(C(=O)O)c2)c2ccc(O)c(C(=O)O)c2)C=CC1=O` [aurintricarboxylic acid] the “onset concentration (apoptosis)” value [4] was 0.25 to 0.5 mg/mL.

In the case of `N.N.[Cl][Pt][Cl]` [cisplatin], the “inhibition of lung cancer A549 cells” value (lung cancer A549 cells) is given as 80-90%.

For `COC(=O)c1cc(/C(=C2/C=CC(=O)C(C(=O)O)=C2)c2ccc(O)c(C(=O)O)c2)ccc1O` [methyl aurintricarboxylate, Methyl aurintricarboxylate], the cell migration (HBE cells [5]) was “little effect”, the cell apoptosis (HBE cells [6]) was “will not induce apoptosis” and the cell invasion (A549 cells [7]) was “significantly inhibits the invasion ability”. For the same molecule, the cell invasion (H1299 cells [8]) was “significantly inhibits the invasion ability”, the cell apoptosis (A549 cells [9]) was “will induce apoptosis” and the cell apoptosis (H1299 cells [10]) was “will induce apoptosis”. For the same molecule, the “number of colonies/1000 cells” value (A549 cells [11]) was “significantly reduced”, the “number of colonies/1000 cells” value (H1299 cells [12]) was “significantly reduced” and the “effect on normal cell apoptosis” value [13] was “basically no effect”. The “Percentage of late apoptotic and necrotic cells” value (shortened to “Percentage”) ([14]; 10 μg/mL, 48 h) was 29.1%, the “late apoptotic+necrotic cells” value ([14]; 20 μg/mL or above, no obvious dose-effect relationship) was “do not increase significantly” and the “Percentage” value ([14]; 20 μg/mL, 48 h) was 17.2%. For the same molecule, the “Percentage” value ([14]; 50 μg/mL, 48 h) was 23.0%, the “Percentage” value ([14]; 120 μg/mL, 48 h) was 22.6% and the apoptosis ([14]; ES-2, 5 μg/mL, 48 h) was “significant effect on promoting apoptosis”. For the same molecule, the early apoptosis ([14]; ES-2, 20 μg/mL, 48 h) was 67.6%, the apoptosis ([14]; ES-2, concentrations higher than 20 μg/mL, 48 h) was “almost all cells are completely apoptotic” and the “inhibition of cell proliferation” value [15] was “obvious inhibitory effect”. For the same molecule, the “inhibition of cell proliferation” value [16] was “obvious inhibitory effect”, the cell migration (A549 cells [17]) was “significantly inhibits the metastasis ability” and the cell migration (H1299 cells [18]) was “significantly inhibits the metastasis ability”.
